# Laboratory results taken from patent publication US20230322846A9, “NEUROACTIVE STEROIDS AND THEIR METHODS OF USE” (SAGE THERAPEUTICS, INC., priority 2018, published 2023).
# pIC50: −log10 of the molar value.
# Target: [35S]-TBPS binding, rat brain cortical membranes
# Assay: Steroid inhibition of [35S]-TBPS binding
# Settings: 3 nM [35S]-TBPS, in the presence of 5 mM GABA
# How it was run: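 Rat cortical P2 membranes incubated 90 min at room temperature with 3 nM [35S]-TBPS, […] and test compound (0.5% DMSO final) in NaCl/Na–K phosphate pH 7.4; nonspecific binding with […]. Filter-bound radioactivity counted; IC50 and Imax from nonlinear fits, mean ± SEM.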
row,SMILES,pIC50
1,"C[C@@H](Cn1ccnn1)[C@H]1CC[C@H]2[C@@H]3CC[C@H]4C[C@](C)(O)CC[C@@H]4[C@H]3CC[C@]12C [Example 59, (3R,5S,8R,9R,10S,13S,14S,17R)-17-((R)-1-(1H-1,2,3-triazol-1-yl)propan-2-yl)-3,13-dimethylhexadecahydro-1H-cyclopenta[a]phenanthren-3-ol]",6.00 to 7.00
2,"C[C@H](Cn1ccnn1)[C@H]1CC[C@H]2[C@@H]3CC[C@H]4C[C@](C)(O)CC[C@@H]4[C@H]3CC[C@]12C [Example 60, (3R,5S,8R,9R,10S,13S,14S,17R)-17-((S)-1-(1H-1,2,3-triazol-1-yl)propan-2-yl)-3,13-dimethylhexadecahydro-1H-cyclopenta[a]phenanthren-3-ol]",6.00 to 7.00
3,"CC[C@@]1(O)CC[C@@]2(C)[C@H](CC[C@@H]3[C@@H]2CC[C@]2(C)[C@@H]([C@H](C)Cn4ccc(C#N)n4)CC[C@@H]32)C1 [Example 62, 1-((S)-2-((3R,5R,8R,9S,10S,13S,14S,17R)-3-ethyl-3-hydroxy-10,13-dimethylhexadecahydro-1H-cyclopenta[a]phenanthren-17-yl)propyl)-1H-pyrazole-3-carbonitrile]",> 7.00
4,"CC[C@@]1(O)CC[C@@]2(C)[C@H](CC[C@@H]3[C@@H]2CC[C@]2(C)[C@@H]([C@@H](C)Cn4nccc4C#N)CC[C@@H]32)C1 [Example 63, 1-((R)-2-((3R,5R,8R,9S,10S,13S,14S,17R)-3-ethyl-3-hydroxy-10,13-dimethylhexadecahydro-1H-cyclopenta[a]phenanthren-17-yl)propyl)-1H-pyrazole-5-carbonitrile]",> 7.00
5,"CC[C@@]1(O)CC[C@@]2(C)[C@H](CC[C@@H]3[C@@H]2CC[C@]2(C)[C@@H]([C@H](C)Cn4nccc4C#N)CC[C@@H]32)C1 [Example 64, 1-((S)-2-((3R,5R,8R,9S,10S,13S,14S,17R)-3-ethyl-3-hydroxy-10,13-dimethylhexadecahydro-1H-cyclopenta[a]phenanthren-17-yl)propyl)-1H-pyrazole-5-carbonitrile]",> 7.00
6,"CCC[C@@]1(O)CC[C@H]2[C@H](CC[C@@H]3[C@@H]2CC[C@]2(C)[C@@H]([C@H](C)Cn4cc(C#N)cn4)CC[C@@H]32)C1 [Example 66, 1-((S)-2-((3R,5R,8R,9R,10S,13S,14S,17R)-3-hydroxy-13-methyl-3-propylhexadecahydro-1H-cyclopenta[a]phenanthren-17-yl)propyl)-1H-pyrazole-4-carbonitrile]",> 7.00
7,"CCOC[C@@]1(O)CC[C@H]2[C@H](CC[C@@H]3[C@@H]2CC[C@]2(C)[C@@H]([C@@H](C)NS(=O)(=O)c4ccc(C#N)cc4)CC[C@@H]32)C1 [Example 67, 4-cyano-N—((R)-1-((3R,5R,8R,9R,10S,13S,14S,17S)-3-(ethoxymethyl)-3-hydroxy-13-methylhexadecahydro-1H-cyclopenta[a]phenanthren-17-yl)ethyl)benzenesulfonamide]",> 7.00
8,"CCOC[C@@]1(O)CC[C@H]2[C@H](CC[C@@H]3[C@@H]2CC[C@]2(C)[C@@H]([C@@H](C)N(C)S(=O)(=O)c4ccc(C#N)cc4)CC[C@@H]32)C1 [Example 68, 4-cyano-N—((R)-1-((3R,5R,8R,9R,10S,13S,14S,17S)-3-(ethoxymethyl)-3-hydroxy-13-methylhexadecahydro-1H-cyclopenta[a]phenanthren-17-yl)ethyl)-N-methylbenzenesulfonamide]",> 7.00
9,CCOC[C@@]1(O)CC[C@H]2[C@H](CC[C@@H]3[C@@H]2CC[C@]2(C)[C@@H]([C@@H](C)NS(=O)(=O)c4cccc(C#N)c4)CC[C@@H]32)C1 [Example 69],> 7.00
10,CCOC[C@@]1(O)CC[C@H]2[C@H](CC[C@@H]3[C@@H]2CC[C@]2(C)[C@@H]([C@@H](C)N(C)S(=O)(=O)c4cccc(C#N)c4)CC[C@@H]32)C1 [Example 70],> 7.00
11,CCOC[C@@]1(O)CC[C@H]2[C@H](CC[C@@H]3[C@@H]2CC[C@]2(C)[C@@H]([C@@H](C)NS(=O)(=O)c4cccc(C#N)n4)CC[C@@H]32)C1 [Example 71],6.00 to 7.00
12,CCOC[C@@]1(O)CC[C@H]2[C@H](CC[C@@H]3[C@@H]2CC[C@]2(C)[C@@H]([C@@H](C)NS(=O)(=O)c4ccc(C#N)cn4)CC[C@@H]32)C1 [Example 73],> 7.00
13,COC[C@@]1(O)CC[C@H]2[C@H](CC[C@@H]3[C@@H]2CC[C@]2(C)[C@@H]([C@@H](C)NS(=O)(=O)c4cccc(C#N)n4)CC[C@@H]32)C1 [Example 75],> 7.00
14,"C[C@@]1(O)CC[C@H]2[C@H](CC[C@@H]3[C@@H]2CC[C@]2(C)[C@@H](CC(=O)Nc4ccccc4)CC[C@@H]32)C1 [Example 76, 2-((3R,5R,8R,9R,10S,13R,14S,17R)-3-hydroxy-3,13-dimethylhexadecahydro-1H-cyclopenta[a]phenanthren-17-yl)-N-phenylacetamide]",6.00 to 7.00
15,"CCOC[C@@]1(O)CC[C@@]2(C)[C@H](CC[C@@H]3[C@@H]2CC[C@]2(C)[C@@H]([C@@H](C)NS(=O)(=O)c4ccc(C#N)cn4)CC[C@@H]32)C1 [Example 77, 5-cyano-N—((R)-1-((3R,5R,8R,9S,10S,13S,14S,17S)-3-(ethoxymethyl)-3-hydroxy-10,13-dimethylhexadecahydro-1H-cyclopenta[a]phenanthren-17-yl)ethyl)pyridine-2-sulfonamide]",> 7.00
16,"CCOC[C@@]1(O)CC[C@@]2(C)[C@H](CC[C@@H]3[C@@H]2CC[C@]2(C)[C@@H]([C@@H](C)N(C)S(=O)(=O)c4ccc(C#N)cn4)CC[C@@H]32)C1 [Example 78, 5-cyano-N—((R)-1-((3R,5R,8R,9S,10S,13S,14S,17S)-3-(ethoxymethyl)-3-hydroxy-10,13-dimethylhexadecahydro-1H-cyclopenta[a]phenanthren-17-yl)ethyl)-N-methylpyridine-2-sulfonamide]",> 7.00
17,"COC[C@@]1(O)CC[C@H]2[C@H](CC[C@@H]3[C@@H]2CC[C@]2(C)[C@@H](CCn4ccc(C#N)n4)CC[C@@H]32)C1 [Example 87, 1-(2-((3R,5R,8R,9R,10S,13R,14S,17R)-3-hydroxy-3-(methoxymethyl)-13-methylhexadecahydro-1H-cyclopenta[a]phenanthren-17-yl)ethyl)-1H-pyrazole-3-carbonitrile]",> 7.00
18,"COC[C@@]1(O)CC[C@H]2[C@H](CC[C@@H]3[C@@H]2CC[C@]2(C)[C@@H](CCn4nccc4C#N)CC[C@@H]32)C1 [Example 88, 1-(2-((3R,5R,8R,9R,10S,13R,14S,17R)-3-hydroxy-3-(methoxymethyl)-13-methylhexadecahydro-1H-cyclopenta[a]phenanthren-17-yl)ethyl)-1H-pyrazole-5-carbonitrile]",> 7.00
19,"CCC[C@@]1(O)CC[C@H]2[C@H](CC[C@@H]3[C@@H]2CC[C@]2(C)[C@@H]([C@@H](C)Nc4ccc(C#N)cn4)CC[C@@H]32)C1 [Example 90, 6-(((R)-1-((3R,5R,8R,9R,10S,13S,14S,17S)-3-hydroxy-13-methyl-3-propylhexadecahydro-1H-cyclopenta[a]phenanthren-17-yl)ethyl)amino)nicotinonitrile]",6.00 to 7.00
20,"CCC[C@@]1(O)CC[C@H]2[C@H](CC[C@@H]3[C@@H]2CC[C@]2(C)[C@@H]([C@@H](C)Nc4ccc(-n5ccc(C)n5)nc4C)CC[C@@H]32)C1 [Example 91, (3R,5R,8R,9R,10S,13S,14S,17S)-13-methyl-17-((R)-1-((2-methyl-6-(3-methyl-1H-pyrazol-1-yl)pyridin-3-yl)amino)ethyl)-3-propylhexadecahydro-1H-cyclopenta[a]phenanthren-3-ol]",6.00 to 7.00
21,"COC[C@@]1(O)CC[C@H]2[C@H](CC[C@@H]3[C@@H]2CC[C@]2(C)[C@@H]([C@@H](C)Cn4cc(C#N)cn4)CC[C@@H]32)C1 [Example 92, 1-((R)-2-((3R, 5R, 8R, 9R, 10S, 13S, 14S, 17R)-3-hydroxy-3-(methoxymethyl)-13-methylhexadecahydro-1H-cyclopenta[a]phenanthren-17-yl)propyl)-1H-pyrazole-4-carbonitrile]",> 7.00
22,C[C@@H](NC(=O)c1ccccn1)[C@H]1CC[C@H]2[C@@H]3CC[C@@H]4C[C@](C)(O)CC[C@@H]4[C@H]3CC[C@]12C [Example 100],6.00 to 7.00
23,C[C@H](NC(=O)c1ccccn1)[C@H]1CC[C@H]2[C@@H]3CC[C@@H]4C[C@](C)(O)CC[C@@H]4[C@H]3CC[C@]12C [Example 101],5.00 to 6.00
24,C[C@H](NC(=O)c1ccccc1F)[C@H]1CC[C@H]2[C@@H]3CC[C@@H]4C[C@](C)(O)CC[C@@H]4[C@H]3CC[C@]12C [Example 102],5.00 to 6.00
25,C[C@@H](NC(=O)c1ccccc1F)[C@H]1CC[C@H]2[C@@H]3CC[C@@H]4C[C@](C)(O)CC[C@@H]4[C@H]3CC[C@]12C [Example 103],> 7.00
26,COc1cccc(C(=O)N[C@H](C)[C@H]2CC[C@H]3[C@@H]4CC[C@@H]5C[C@](C)(O)CC[C@@H]5[C@H]4CC[C@]23C)c1 [Example 104],> 7.00
27,COc1cccc(C(=O)N[C@@H](C)[C@H]2CC[C@H]3[C@@H]4CC[C@@H]5C[C@](C)(O)CC[C@@H]5[C@H]4CC[C@]23C)c1 [Example 105],5.00 to 6.00
28,COc1ccc(C(=O)N[C@H](C)[C@H]2CC[C@H]3[C@@H]4CC[C@@H]5C[C@](C)(O)CC[C@@H]5[C@H]4CC[C@]23C)cc1 [Example 106],6.00 to 7.00
29,COc1ccc(C(=O)N[C@@H](C)[C@H]2CC[C@H]3[C@@H]4CC[C@@H]5C[C@](C)(O)CC[C@@H]5[C@H]4CC[C@]23C)cc1 [Example 107],5.00 to 6.00
